Source: patent US20230024096A1, “BIFUNCTIONAL COMPOUNDS FOR THE TREATMENT OF CANCER” (Hoffmann-La Roche Inc., priority 2019, published 2023)

Target: T1, SMARCA2 (Homo sapiens, UniProt P51531)
T1 construct: endogenous in cells; host or cells: HT1080 (CRISPR HiBiT knock-in clone, generated in house)
Assay: SMARCA2 HiBiT degradation assay (cellular)
Type: cell-based
Conditions: table head names A549; for DC50: 6 h incubation, HiBiT-tagged SMARCA2, luminescence read-out, read-out: HiBit A549 SMARCA2 IP (nM) 6 h; for Emax: A549, 6 h incubation, Emax = amount of residual protein remaining in the cell following compound treatment

T1 sequence (P51531 whole entry): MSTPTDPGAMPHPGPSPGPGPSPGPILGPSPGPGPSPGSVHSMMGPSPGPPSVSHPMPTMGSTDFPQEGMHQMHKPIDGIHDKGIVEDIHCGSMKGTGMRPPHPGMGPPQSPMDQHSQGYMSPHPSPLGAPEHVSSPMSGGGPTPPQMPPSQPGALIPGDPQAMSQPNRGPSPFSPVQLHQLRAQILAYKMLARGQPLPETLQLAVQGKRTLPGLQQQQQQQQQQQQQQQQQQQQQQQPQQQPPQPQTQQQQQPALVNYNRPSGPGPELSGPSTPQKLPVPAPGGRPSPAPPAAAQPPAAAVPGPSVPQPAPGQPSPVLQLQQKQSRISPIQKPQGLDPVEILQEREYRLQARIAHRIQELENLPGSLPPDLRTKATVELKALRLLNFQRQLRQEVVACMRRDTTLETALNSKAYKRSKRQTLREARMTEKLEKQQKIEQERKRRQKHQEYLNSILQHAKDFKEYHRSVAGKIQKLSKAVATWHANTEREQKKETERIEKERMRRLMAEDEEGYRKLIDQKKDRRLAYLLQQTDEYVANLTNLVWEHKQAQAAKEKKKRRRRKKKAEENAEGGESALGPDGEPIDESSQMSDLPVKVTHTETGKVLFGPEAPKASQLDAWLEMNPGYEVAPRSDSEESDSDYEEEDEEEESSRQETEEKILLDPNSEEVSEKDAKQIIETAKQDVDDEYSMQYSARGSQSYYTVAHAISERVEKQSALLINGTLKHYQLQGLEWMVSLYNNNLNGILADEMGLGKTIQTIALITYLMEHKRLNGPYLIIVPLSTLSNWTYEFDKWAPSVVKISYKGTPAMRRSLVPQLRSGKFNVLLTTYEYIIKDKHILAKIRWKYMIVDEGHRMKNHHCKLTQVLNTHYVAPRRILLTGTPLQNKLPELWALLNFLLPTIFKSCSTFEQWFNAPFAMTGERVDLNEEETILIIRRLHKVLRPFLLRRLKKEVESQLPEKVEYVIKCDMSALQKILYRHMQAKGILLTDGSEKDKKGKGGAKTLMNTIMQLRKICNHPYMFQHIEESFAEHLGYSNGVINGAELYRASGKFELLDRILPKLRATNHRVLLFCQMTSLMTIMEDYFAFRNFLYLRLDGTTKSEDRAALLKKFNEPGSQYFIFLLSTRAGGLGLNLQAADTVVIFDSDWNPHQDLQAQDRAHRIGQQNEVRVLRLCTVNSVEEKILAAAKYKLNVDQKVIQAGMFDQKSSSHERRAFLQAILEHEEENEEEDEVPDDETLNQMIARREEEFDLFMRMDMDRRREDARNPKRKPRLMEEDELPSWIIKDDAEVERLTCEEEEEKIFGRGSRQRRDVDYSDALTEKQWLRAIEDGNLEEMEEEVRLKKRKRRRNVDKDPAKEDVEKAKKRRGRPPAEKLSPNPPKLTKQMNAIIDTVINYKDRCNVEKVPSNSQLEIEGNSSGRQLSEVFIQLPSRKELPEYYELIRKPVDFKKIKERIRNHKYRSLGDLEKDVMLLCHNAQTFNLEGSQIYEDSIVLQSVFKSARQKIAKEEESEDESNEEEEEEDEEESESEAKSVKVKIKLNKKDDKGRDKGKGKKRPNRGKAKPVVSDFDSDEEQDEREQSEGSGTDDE

| Structure (SMILES) | DC50 [nM] | Emax [%] |
| --- | --- | --- |
| Cc1c(C(=O)N2CCN(C(=O)C3CCN(c4ccc5c(c4)C(=O)N(C4CCC(=O)NC4=O)C5=O)CC3)CC2)cccc1N1C2CCC1CN(c1cc(-c3ccccc3O)nnc1N)C2 (racemic) [Example 116, rac-5-[4-[4-[3-[3-[3-amino-6-(2-hydroxyphenyl)pyridazin-4-yl]-3,8-diazabicyclo[3.2.1]octan-8-yl]-2-methyl-benzoyl]piperazine-1-carbonyl]-1-piperidyl]-2-(2,6-dioxo-3-piperidyl)isoindoline-1,3-dione] | 58 | 32 |
| Nc1nnc(-c2ccccc2O)cc1N1CCC(OCC(=O)NC2CCN(C(=O)CN3CCC(c4ccc(OC5CCC(=O)NC5=O)cc4)CC3)CC2)(c2ccccc2)CC1 (stereo not shown) [Example 194, 2-[[1-[3-amino-6-(2-hydroxyphenyl)pyridazin-4-yl]-4-phenyl-4-piperidyl]oxy]-N-[1-[2-[4-[4-[(2,6-dioxo-3-piperidyl)oxy]phenyl]-1-piperidyl]acetyl]-4-piperidyl]acetamide] | 67 | 61 |
| Nc1nnc(-c2ccccc2O)cc1N1CCC(C(=O)NCC2CCN(C(=O)CCCN3CCC(c4ccc(NC5CCC(=O)NC5=O)cc4)CC3)CC2)(c2ccccc2)CC1 (stereo not shown) [Example 105, 1-(3-amino-6-(2-hydroxyphenyl)pyridazin-4-yl)-N-((1-(4-(4-(4-((2,6-dioxopiperidin-3-yl)amino)phenyl)piperidin-1-yl)butanoyl)piperidin-4-yl)methyl)-4-phenylpiperidine-4-carboxamide] | 100 | 33 |
| Nc1nnc(-c2ccccc2O)cc1OC1CCCN(c2ccc(N3CCN(CC4CN(C(=O)CCCCn5cc(COc6cccc7c6C(=O)N(C6CCC(=O)NC6=O)C7=O)nn5)C4)CC3)cc2)C1 (racemic) [Example 137, 2-(2,6-dioxo-3-piperidyl)-4-[[1-[5-oxo-5-[3-[[4-[4-[rac-(3S)-3-[3-amino-6-(2-hydroxyphenyl)pyridazin-4-yl]oxy-1-piperidyl]phenyl]piperazin-1-yl]methyl]azetidin-1-yl]pentyl]triazol-4-yl]methoxy]isoindoline-1,3-dione] | 535 | 63 |
| Cc1c(C(=O)N2CCN(C(=O)CCC3CCN(c4ccc5c(c4)C(=O)N(C4CCC(=O)NC4=O)C5=O)CC3)CC2)cccc1N1C2CCC1CN(c1cc(-c3ccccc3O)nnc1N)C2 (racemic) [Example 117, rac-5-[4-[3-[4-[3-[3-[3-amino-6-(2-hydroxyphenyl)pyridazin-4-yl]-3,8-diazabicyclo[3.2.1]octan-8-yl]-2-methyl-benzoyl]piperazin-1-yl]-3-oxo-propyl]-1-piperidyl]-2-(2,6-dioxo-3-piperidyl)isoindoline-1,3-dione] | 144 | 50 |
| Nc1nnc(-c2ccccc2O)cc1N1CC(Oc2cccc(CN3CCN(C(=O)CCCCCCCCCNc4cccc5c4C(=O)N(C4CCC(=O)NC4=O)C5=O)CC3)c2)C1 (stereo not shown) [Example 32, 4-[[10-[4-[[3-[1-[3-amino-6-(2-hydroxyphenyl)pyridazin-4-yl]azetidin-3-yl]oxyphenyl]methyl]piperazin-1-yl]-10-oxo-decyl]amino]-2-(2,6-dioxo-3-piperidyl)isoindoline-1,3-dione] | 281 | 62 |
| Nc1nnc(-c2ccccc2O)cc1N1CC2CCC(C1)N2c1cccc(OCCN2CCN(C(=O)CN3CCC(c4ccc(OC5CCC(=O)NC5=O)cc4)CC3)CC2)c1 (racemic) [Example 43, rac-3-[4-[1-[2-[4-[2-[3-[3-[3-amino-6-(2-hydroxyphenyl)pyridazin-4-yl]-3,8-diazabicyclo[3.2.1]octan-8-yl]phenoxy]ethyl]piperazin-1-yl]-2-oxo-ethyl]-4-piperidyl]phenoxy]piperidine-2,6-dione] | 32 | 31 |
| Nc1nnc(-c2ccccc2O)cc1N1CCN(c2ccccc2)C(C(=O)NC2CCN(C(=O)CC3CCN(c4ccc5c(c4)C(=O)N(C4CCC(=O)NC4=O)C5=O)CC3)CC2)C1 (stereo not shown) [Example 53, 4-[3-amino-6-(2-hydroxyphenyl)pyridazin-4-yl]-N-[1-[2-[1-[2-(2,6-dioxo-3-piperidyl)-1,3-dioxo-isoindolin-5-yl]-4-piperidyl]acetyl]-4-piperidyl]-1-phenyl-piperazine-2-carboxamide] | 122 | 46 |
| Nc1nnc(-c2ccccc2O)cc1OCC(CNC(=O)CN1CCC(c2ccc(OC3CCC(=O)NC3=O)cc2)CC1)c1ccccc1 (racemic) [Example 98, N-[3-[3-amino-6-(2-hydroxyphenyl)pyridazin-4-yl]oxy-2-phenyl-propyl]-2-[4-[4-[(2,6-dioxo-3-piperidyl)oxy]phenyl]-1-piperidyl]acetamide;2,2,2-trifluoroacetic acid (racemic mixture of diastereomers)] | 182 | 63 |
| Nc1nnc(-c2ccccc2O)cc1N1CCC(C(=O)N2CCC(C(=O)N3CCN(c4ccc(C5CCC(=O)NC5=O)cc4)CC3)CC2)(c2ccccc2)CC1 (stereo not shown) [Example 176, 3-(4-(4-(1-(1-(3-amino-6-(2-hydroxyphenyl)pyridazin-4-yl)-4-phenylpiperidine-4-carbonyl)piperidine-4-carbonyl)piperazin-1-yl)phenyl)piperidine-2,6-dione] |  | 31 |
| Nc1nnc(-c2ccccc2O)cc1N1CCC(C(=O)N2CCC3(CC2)CN(C(=O)C2CCN(c4ccc5c(c4)C(=O)N(C4CCC(=O)NC4=O)C5=O)CC2)CCO3)(c2ccccc2)CC1 (stereo not shown) [Example 167, 5-(4-(9-(1-(3-amino-6-(2-hydroxyphenyl)pyridazin-4-yl)-4-phenylpiperidine-4-carbonyl)-1-oxa-4,9-diazaspiro[5.5]undecane-4-carbonyl)piperidin-1-yl)-2-(2,6-dioxopiperidin-3-yl)isoindoline-1,3-dione] | 54 | 43 |
| Nc1nnc(-c2ccccc2O)cc1N1CCC(NC(=O)CCN2CCC(c3ccc(OC4CCC(=O)NC4=O)cc3)CC2)(c2ccccc2)CC1 (stereo not shown) [Example 115, N-(1-(3-amino-6-(2-hydroxyphenyl)pyridazin-4-yl)-4-phenylpiperidin-4-yl)-3-(4-(4-((2,6-dioxopiperidin-3-yl)oxy)phenyl)piperidin-1-yl)propanamide diformate] | 810 | 63 |
| Nc1nnc(-c2ccccc2O)cc1N1CCC(CNC(=O)COc2ccc3c(c2)C(=O)N(C2CCC(=O)NC2=O)C3=O)(c2ccccc2)CC1 (stereo not shown) [Example 73, N-((1-(3-amino-6-(2-hydroxyphenyl)pyridazin-4-yl)-4-phenylpiperidin-4-yl)methyl)-2-((2-(2,6-dioxopiperidin-3-yl)-1,3-dioxoisoindolin-5-yl)oxy)acetamide] | 114 | 49 |
| CN(c1cccc2c1C(=O)N(C1CCC(=O)NC1=O)C2=O)C1CCN(C(=O)CCC(=O)N2CCN(CCOc3cccc(N4C5CCC4CN(c4cc(-c6ccccc6O)nnc4N)C5)c3)CC2)CC1 (racemic) [Example 21, rac-4-[[1-[4-[4-[2-[3-[3-[3-amino-6-(2-hydroxyphenyl)pyridazin-4-yl]-3,8-diazabicyclo[3.2.1]octan-8-yl]phenoxy]ethyl]piperazin-1-yl]-4-oxo-butanoyl]-4-piperidyl]-methyl-amino]-2-(2,6-dioxo-3-piperidyl)isoindoline-1,3-dione] | 118 | 29 |
| Nc1nnc(-c2ccccc2O)cc1N1CC2CCC(C1)N2c1cccc(CN2CCN(C(=O)CCC3CCN(c4ccc5c(c4)C(=O)N(C4CCC(=O)NC4=O)C5=O)CC3)CC2)n1 (racemic) [Example 133, rac-5-[4-[3-[4-[[6-[3-[3-amino-6-(2-hydroxyphenyl)pyridazin-4-yl]-3,8-diazabicyclo[3.2.1]octan-8-yl]-2-pyridyl]methyl]piperazin-1-yl]-3-oxo-propyl]-1-piperidyl]-2-(2,6-dioxo-3-piperidyl)isoindoline-1,3-dione] | 64 | 44 |
| Nc1nnc(-c2ccccc2O)cc1N1CCC(C(=O)N2CC3(CCN(CCC4CCN(c5ccc6c(c5)C(=O)N(C5CCC(=O)NC5=O)C6=O)CC4)C3)C2)(c2ccccc2)CC1 (stereo not shown) [Example 191, 5-(4-(2-(2-(1-(3-amino-6-(2-hydroxyphenyl)pyridazin-4-yl)-4-phenylpiperidine-4-carbonyl)-2,6-diazaspiro[3.4]octan-6-yl)ethyl)piperidin-1-yl)-2-(2,6-dioxopiperidin-3-yl)isoindoline-1,3-dione] | 30 | 37 |
| Nc1nnc(-c2ccccc2O)cc1N1CC2CCC(C1)N2c1cccc(OCCN2CCN(C(=O)COc3ccc4c(c3)C(=O)N(C3CCC(=O)NC3=O)C4=O)CC2)c1 (racemic) [Example 99, rac-5-[2-[4-[2-[3-[3-[3-amino-6-(2-hydroxyphenyl)pyridazin-4-yl]-3,8-diazabicyclo[3.2.1]octan-8-yl]phenoxy]ethyl]piperazin-1-yl]-2-oxo-ethoxy]-2-(2,6-dioxo-3-piperidyl)isoindoline-1,3-dione] | 31 | 51 |
| Nc1nnc(-c2ccccc2O)cc1N1CCC(C(=O)N2CCC3(CC2)CN(C(=O)CCCN2CCC(c4ccc(OC5CCC(=O)NC5=O)cc4)CC2)CCO3)(c2ccccc2)CC1 (stereo not shown) [Example 181, 3-(4-(1-(4-(9-(1-(3-amino-6-(2-hydroxyphenyl)pyridazin-4-yl)-4-phenylpiperidine-4-carbonyl)-1-oxa-4,9-diazaspiro[5.5]undecan-4-yl)-4-oxobutyl)piperidin-4-yl)phenoxy)piperidine-2,6-dione] | 99 | 56 |
| Nc1nnc(-c2ccccc2O)cc1N1CC2CCC(C1)N2c1cccc(CN2CCN(CCOC3CCN(c4ccc5c(c4)C(=O)N(C4CCC(=O)NC4=O)C5=O)CC3)CC2)c1 (racemic) [Example 55, rac-5-[4-[2-[4-[[3-[3-[3-amino-6-(2-hydroxyphenyl)pyridazin-4-yl]-3,8-diazabicyclo[3.2.1]octan-8-yl]phenyl]methyl]piperazin-1-yl]ethoxy]-1-piperidyl]-2-(2,6-dioxo-3-piperidyl)isoindoline-1,3-dione] | 19 | 35 |
